Several values for one entry are separate records, joined by “and”; a condition that tells them apart may be missing. Equal values may be shown once. Entries after “also recorded” stand apart in the source; their conditions may differ. Read-outs that look alike come from different tables or passages of the source. One block for each molecule: values may come before it.
Experiments:
synj1 [1] = assay: Western blot of synj1 protein levels in wt cortical neurons; format: cell-based
Protocol: Results were determined by measuring the synj1 protein levels as a percentage of the control (±SEM). One-way ANOVA was performed followed by post-hoc multiple comparison tests to determine the significance of differences between drug-treated vs DMSO control. **p<0.01; N=4-17/condition. […] DMSO-treated conditions were used as controls and results were presented as percentage of the control (±SEM). […] FIGS. 3A, B and C). […] FIGS. 3A, B and C). […] D) In vitro calcium channel inhibition assays. Results were presented as percentage of inhibition (±SEM). […] One-way ANOVA was performed followed by post-hoc multiple comparison tests to determine the significance of differences between drug-treated vs DMSO control. *p<0.05, **p<0.01, ***p<0.001; N=3/condition except in A) nimodipine-treated conditions with N=20.

synj1 [2] = assay: Long-term daily IP treatment of AD transgenic mice: cortical brain synj1 levels; format: in vivo; conditions: APP/PS1 transgenic mouse, 2.5 mg/kg/day IP for 6 months, compared to Tg vehicle controls
Protocol: (§1) Data is presented as % of wt control (vehicle-treated) time spent exploring novel objects. N=13-15/group. C) Cortical brain synj1 levels as well as D) PIP2 levels in Tg mice (vehicle-, nimodipine- or Example 9-treated) were compared to vehicle-treated controls (as 100%) in wildtype (wt) mice. N=7-13/group. One-way ANOVA was performed followed by post-hoc multiple comparison tests to determine the significance of differences between pairs of means. *p<0.05, **p<0.01, ***p<0.001, ****p<0.0001.

synj1 5′-promoter region = assay: synj1 5′-promoter luciferase assay (GLuc/SEAP dual reporter) in ApoE4 cortical neurons; format: cell-based; conditions: for inhibition of synj1 transcription activities: luciferase assay; for IC50: Cortical neurone, ApoE4 cortical neurons, 48 hours treatment, read-out: IC50 (synj1 transcriptional activity, luciferase assay)
Protocol: The in vitro luciferase assay uses a dual reporter system of Gaussia luciferase (GLuc) and secreted alkaline phosphatase (SEAP) tagged synj1 5′-promoter region. […] (FIG. 2). DMSO-treated conditions were used as controls and results were presented as percentage of the control (±SEM). One-way ANOVA was performed followed by post-hoc multiple comparison tests to determine the significance of differences between drug-treated vs DMSO control. *p<0.05; N=5-17/condition.

[3] = Brain and blood exposure after PO administration to male CD-1 mice; format: in vivo, mouse; conditions: for concentration at 1 h / concentration at 3 h / Kp at 1 h / Kp at 3 h: mouse, PO 30 mg/kg, male CD-1 mice; for Kp at 1 h / Kp at 3 h: brain/blood, read-out: Brain/Blood ratio
in vivo = conditions: male, CD-1, mouse
Aβ40 [4] = assay: Long-term daily IP treatment of AD transgenic mice: brain Aβ40 levels; format: in vivo, mouse; conditions: 2.5 mg/kg/day IP for 6 months
Protocol: (§2) N=5-7/group. […] One-way ANOVA was performed followed by post-hoc multiple comparison tests to determine the significance of differences between drug-treated vs DMSO control. *p<0.05, **p<0.01.

Aβ42 [5] = assay: ELISA of Aβ42 levels in wt cortical neuronal culture; format: cell-based; conditions: 10 μM, wt cortical neurons
Protocol: (§3) DMSO-treated conditions were used as controls and results were presented as percentage of the control (±SEM). […] FIGS. 3A, B and C). […] FIGS. 3A, B and C). […] D) In vitro calcium channel inhibition assays. Results were presented as percentage of inhibition (±SEM). […] One-way ANOVA was performed followed by post-hoc multiple comparison tests to determine the significance of differences between drug-treated vs DMSO control. *p<0.05, **p<0.01, ***p<0.001; N=3/condition except in A) nimodipine-treated conditions with N=20.

Aβ40 [6] = assay: ELISA of Aβ40 levels in wt cortical neuronal culture; format: cell-based; conditions: wt cortical neurons
Protocol: as §3

wt cortical neurons = assay: Observed toxicity in wt cortical neuron cultures; format: cell-based; conditions: 10 μM
ApoE4 mice = assay: Long-term daily oral treatment of ApoE KI mice: NOR test; format: in vivo, mouse; conditions: 3 mg/kg/day oral for 6 months, vs vehicle-treated ApoE4 mice
Protocol: FIG. 7 Long-term in vivo treatment of Example 9 via daily oral administration at 3 mg/kg/day in ApoE KI mice. […] Data is presented as a percentage of ApoE3 control (vehicle-treated) time spent exploring novel objects. N=12-13/group. Cortical brain B) synj1 levels as well as C) pTau levels in ApoE4 mice (vehicle- or Example 9-treated) were compared to vehicle-treated controls (as 100%) in ApoE3 mice. N=6-9/group. One-way ANOVA was performed followed by post-hoc multiple comparison tests to determine the significance of differences between pairs of means. *p<0.05, **p<0.01.

[7] = Blood pharmacokinetics after IV or PO administration to male CD-1 mice
Aβ40 [8] = assay: Long-term daily oral treatment of ApoE KI mice: brain Aβ40 levels; format: in vivo, mouse; conditions: 3 mg/kg/day oral
Protocol: (§4) FIG. 8 Long-term in vivo treatment of Example 9 via daily oral administration at 3 mg/kg/day in ApoE KI mice. […] N=5-8/group. Vehicle-treated conditions were used as controls and results were presented as percentage of the control (±SEM). One-way ANOVA was performed followed by post-hoc multiple comparison tests to determine the significance of differences between drug-treated vs DMSO control. *p<0.05, ***p<0.001.

APP/PS1 transgenic mouse = assay: Long-term daily IP treatment of AD transgenic mice: NOR and Y maze behavior tests; format: in vivo; conditions: 2.5 mg/kg/day IP for 6 months, vs vehicle Tg mice
Protocol: as §1

Aβ42 [9] = assay: Long-term daily IP treatment of AD transgenic mice: brain Aβ42 levels; format: in vivo, mouse; conditions: 2.5 mg/kg/day IP for 6 months
Protocol: as §2

Aβ42 [10] = assay: Long-term daily oral treatment of ApoE KI mice: brain Aβ42 levels; format: in vivo, mouse; conditions: 3 mg/kg/day oral
Protocol: as §4

[11] = system: Ca2+- L type calcium channel (dihydropyridine site); assay: Calcium channel activity, Cerep radioligand displacement (dihydropyridine site, antagonist); format: binding
Protocol: as §3, with “[table] […] DMSO-treated” for “DMSO-treated”

[12] = APP/PS1 transgenic mouse neocortex, vs Tg vehicle
[13] = male, CD-1, mouse, blood, iv, 1 mg/kg
[14] = male, CD-1, mouse, blood, po, 30 mg/kg

IC50 (synj1 5′-promoter region): 3.99 µM
concentration at 1 h ([3]; blood, read-out: Blood conc.): 70 ng/mL
concentration at 3 h ([3]; blood, read-out: Blood conc.): 62 ng/mL
Kp at 1 h [3]: 1.9
Kp at 3 h [3]: 1
concentration at 1 h ([3]; brain, read-out: Brain conc.): 136 ng/mL
concentration at 3 h ([3]; brain, read-out: Brain conc.): 62 ng/mL
bioavailability (in vivo): 7%
AUC (in vivo; iv, 1 mg/kg): 187 ng·h/mL
Cmax (in vivo; iv, 1 mg/kg): 341 ng/mL
Vd (in vivo; iv, 1 mg/kg): 3.29 L/kg
clearance (in vivo; iv, 1 mg/kg): 88.8 mL/min/kg
half-life (in vivo; iv, 1 mg/kg): 0.58 h
AUC (in vivo; po, 30 mg/kg): 384 ng·h/mL
Cmax (in vivo; po, 30 mg/kg): 114 ng/mL
half-life (in vivo; po, 30 mg/kg): 7.27 h
Compound: COCCOC(=O)C1=C(C)NC(C)=C(C(=O)OC(C)C)C1c1cccc([N+](=O)[O-])c1 (racemic) [nimodipine]
reduction of synj1 protein levels (synj1 [1]; 10 μM): 26.6%
reduction of synj1 protein levels in brain neocortical regions (synj1 [2]): 75.8%
inhibition of synj1 transcription activities (synj1 5′-promoter region; 10 μM): Nimodipine at 10 μM achieved a 43.0% inhibition of synj1
decrease in soluble Aβ40 levels (Aβ40 [4]; [12]): 24.7%
reduction of Aβ42 levels (Aβ42 [5]): 12.1%
reduction of Aβ42 levels (Aβ42 [5]; listed as Nimodipine): 12.1% reduction of Aβ42 levels. Example 9 at 5 μM exhibited a
reduction of Aβ40 levels (Aβ40 [6]; 10 μM): 47.0%
reduction of Aβ40 levels (Aβ40 [6]; 10 μM, listed as Nimodipine): synj1 protein levels, a 47% reduction of Aβ40 levels and a

IC50 (synj1 5′-promoter region): 1.89 µM
Compound: COCCOC(=O)C1=C(C)NC(C)=C(C(=O)OC(C)C)C1c1ccc(C(F)(F)F)cc1 (centres unmarked) [Example 6, 3-isopropyl 5-(2-methoxyethyl) 2,6-dimethyl-4-(4-(trifluoromethyl)phenyl)-1,4-dihydropyridine-3,5-dicarboxylate]
toxicity in cortical neuron culture (wt cortical neurons): observed toxicities

Compound: COCCOC(=O)C1=C(C)NC(C)=C(C(=O)OC(C)C)C1c1ccc(OC(F)(F)F)cc1 (centres unmarked) [Example 7]
toxicity in cortical neuron culture (wt cortical neurons): observed toxicities

oral bioavailability (in words) ([7]; compared with nimodipine): better than nimodipine
AUC [7, 13]: 189 ng·h/mL
Cmax [7, 13]: 228 ng/mL
Vd [7, 13]: 8.2 L/kg
clearance [7, 13]: 85 mL/min/kg
half-life [7, 13]: 1.68 h
bioavailability ([7]; male, CD-1, mouse, blood, oral, 30 mg/kg): 73%
AUC [7, 14]: 4120 ng·h/mL
Cmax [7, 14]: 1010 ng/mL
half-life [7, 14]: 0.84 h
calcium channel inhibition ([11]; 1 nM): no calcium channel
calcium channel inhibition ([11]; 0.1 μM): 81.3%
IC50 (synj1 5′-promoter region): 3.33 µM
CNS penetrability (in words) ([3]; compared with nimodipine): better than nimodipine
concentration at 1 h ([3]; blood, read-out: Blood conc.): 518 ng/mL
concentration at 3 h ([3]; blood, read-out: Blood conc.): 607 ng/mL
Kp at 1 h [3]: 1.2
Kp at 3 h [3]: 0.7
concentration at 1 h ([3]; brain, read-out: Brain conc.): 604 ng/mL
concentration at 3 h ([3]; brain, read-out: Brain conc.): 421 ng/mL
Compound: COCCOC(=O)C1=C(C)NC(C)=C(C(=O)OC(C)C)C1c1ccc(C(C)(C)C)cc1 (centres unmarked) [Example 9, 3-isopropyl 5-(2-methoxyethyl) 4-(4-(tert-butyl)phenyl)-2,6-dimethyl-1,4-dihydropyridine-3,5-dicarboxylate]
cognitive function in NOR test (in words) (ApoE4 mice): cognitive improvements
levels of soluble Aβ40 in ApoE4 animal brains (in words) (Aβ40 [8]): reduction
cognitive function in NOR and Y-maze tests (in words) (APP/PS1 transgenic mouse): cognitive improvements
reduction of synj1 protein levels (synj1 [1]; 5 μM): 62.4% and 62.3%
levels of insoluble Aβ42 in Tg animal brains (in words) (Aβ42 [9]; AD transgenic mice): trend of reduction
levels of soluble Aβ42 in Tg animal brains (in words) (Aβ42 [9]; AD transgenic mice): Reduction
decrease in insoluble Aβ42 levels (Aβ42 [9]; [12]): 27.4%
decrease in soluble Aβ42 levels (Aβ42 [9]; [12]): insoluble Aβ42 levels, a 19.3% decrease in soluble Aβ42 levels,
levels of insoluble Aβ42 in ApoE4 animal brains (in words) (Aβ42 [10]): trend of reduction
levels of soluble Aβ42 in ApoE4 animal brains (in words) (Aβ42 [10]): reduction
reduction of synj1 protein levels in brain neocortical regions (synj1 [2]): 99.4%
calcium channel inhibition compared to nimodipine (in words) ([11]; versus nimodipine): attenuated calcium channel blockade effects; also recorded: Example 9 has attenuated calcium channel inhibition versus
toxicity in cortical neuron culture (wt cortical neurons): observed toxicities
inhibition of synj1 transcription activities (synj1 5′-promoter region; 3 μM): 44.4% inhibition.
levels of insoluble Aβ40 in Tg animal brains (in words) (Aβ40 [4]; AD transgenic mice): Reduction
decrease in insoluble Aβ40 levels (Aβ40 [4]; [12]): 23.7%
decrease in soluble Aβ40 levels (Aβ40 [4]; [12]): 12%
reduction of Aβ40 levels (Aβ40 [6]; 5 μM): 82.6%

— patent US12227479B2, “Dihydropyridines for the treatment of cognitive impairment or traumatic brain injury” (Icahn School of Medicine at Mount Sinai, priority 2017, dated 2025)
